These results are taken from patent US7592005B2, “Monoclonal antibody” (Kirin Beer Kabushiki Kaisha, priority 2000, dated 2009).

The subject of the data set is IM9 cells. Nature of the data set: Cellular cytotoxicity on human myeloma cell line IM9 (MTS). The settings on record: read-out: IC50, cellular cytotoxicity, free maytansine derivative.

Structures are written as SMILES.

Protocol: In the same manner as in Example 11, the reactivity to the human myeloma cell line IM9 cell (ATCC CCL-159) was investigated. […] Thereafter, a solution of MTS (3-(4,5-dimethylthiazol-2-yl)-5-(3-carboxymethoxyphenyl)-2-(4-sulphophenyl)-2H-tetrazolium, Promega) was added to each well in amounts of 20 μl each, followed by culturing for an additional 2 hours. Subsequently, the absorbance at 490 nm of the surviving cells was assayed using a microplate reader (MTP-300, Corona Electric Co., Ltd.).

With `COc1cc2cc(c1Cl)N(C)C(=O)C[C@H](OC(=O)[C@H](C)N(C)C(=O)CCSSC)[C@]1(C)O[C@H]1[C@H](C)[C@@H]1C[C@@](O)(NC(=O)O1)[C@H](OC)/C=C/C=C(\C)C2` [May-SS-Me], the IC50 was 10 nM.
